The source made the active and inactive calls.
Columns and labels:
[1] = target: Melanin-concentrating hormone receptor 1 (Homo sapiens, UniProt Q99705); experiment: Late-stage fluorescence-based counterscreen for antagonists of the G-protein coupled receptor 7 (GPR7): cell-based dose response assay to identify antagonists of the melanin-concentrating hormone receptor 1 (MCHR1). [Related pubchem assays (depositor defined):AID1861, AID1880, AID1952, AID2148, AID2251, AID2257, AID485339]; type: functional;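 also: stimulated with 30 nM MCH peptide agonist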
[2] = target: T1, Neuropeptides B/W receptor type 1 (Homo sapiens, UniProt P48145); experiment: human NPBW1 receptor blockade, IC50 – cell-based, fluorescence, dose response, late-stage follow-up (AID 463251); type: functional
T1 sequence (P48145 whole entry): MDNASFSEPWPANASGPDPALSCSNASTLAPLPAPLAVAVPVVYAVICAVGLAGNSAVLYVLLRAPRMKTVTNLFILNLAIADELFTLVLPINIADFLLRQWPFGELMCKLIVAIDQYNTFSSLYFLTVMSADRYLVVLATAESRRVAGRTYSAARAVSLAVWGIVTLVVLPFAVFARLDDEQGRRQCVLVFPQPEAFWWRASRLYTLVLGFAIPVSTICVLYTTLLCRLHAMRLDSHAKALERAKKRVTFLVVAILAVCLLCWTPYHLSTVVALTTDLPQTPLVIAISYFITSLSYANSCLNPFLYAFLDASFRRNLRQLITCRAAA

[3] = target: T2, Eukaryotic translation initiation factor 2-alpha kinase 3 (Homo sapiens, UniProt Q9NZJ5); experiment: Dose response cell-based high-throughput screening assay to measure PERK inhibition. [Related pubchem assays: 1416 ]; type: functional
T2 sequence (Q9NZJ5 whole entry): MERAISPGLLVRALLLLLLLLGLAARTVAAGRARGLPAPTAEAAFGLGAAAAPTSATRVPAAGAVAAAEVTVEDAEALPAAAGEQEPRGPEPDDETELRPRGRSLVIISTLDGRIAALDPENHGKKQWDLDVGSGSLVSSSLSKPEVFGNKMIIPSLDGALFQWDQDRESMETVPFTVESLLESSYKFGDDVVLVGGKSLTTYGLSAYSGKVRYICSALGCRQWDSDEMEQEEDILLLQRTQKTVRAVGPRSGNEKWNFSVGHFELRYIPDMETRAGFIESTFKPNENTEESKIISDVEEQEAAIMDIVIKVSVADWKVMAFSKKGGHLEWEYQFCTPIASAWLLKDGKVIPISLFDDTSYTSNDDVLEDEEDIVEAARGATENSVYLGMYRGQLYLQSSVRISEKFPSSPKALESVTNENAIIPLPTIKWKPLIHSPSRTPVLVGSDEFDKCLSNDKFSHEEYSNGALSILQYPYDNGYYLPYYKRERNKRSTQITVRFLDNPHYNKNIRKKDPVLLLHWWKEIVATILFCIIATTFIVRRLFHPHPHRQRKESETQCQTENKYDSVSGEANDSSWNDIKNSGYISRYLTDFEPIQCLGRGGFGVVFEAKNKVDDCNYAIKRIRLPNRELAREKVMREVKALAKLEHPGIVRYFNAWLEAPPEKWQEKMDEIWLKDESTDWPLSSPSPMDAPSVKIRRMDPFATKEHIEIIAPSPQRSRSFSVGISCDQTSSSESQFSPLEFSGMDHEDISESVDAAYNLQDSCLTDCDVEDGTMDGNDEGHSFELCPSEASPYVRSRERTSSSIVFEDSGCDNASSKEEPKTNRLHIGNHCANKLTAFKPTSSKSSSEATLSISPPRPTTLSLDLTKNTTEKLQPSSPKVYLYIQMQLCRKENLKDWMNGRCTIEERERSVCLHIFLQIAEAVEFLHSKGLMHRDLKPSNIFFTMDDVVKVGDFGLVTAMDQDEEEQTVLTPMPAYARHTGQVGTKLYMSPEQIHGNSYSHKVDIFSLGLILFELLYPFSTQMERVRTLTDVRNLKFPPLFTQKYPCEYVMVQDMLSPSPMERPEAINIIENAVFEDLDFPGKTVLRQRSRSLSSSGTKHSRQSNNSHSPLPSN

[4] = target: T2, Eukaryotic translation initiation factor 2-alpha kinase 3; experiment: Counterscreen assay for PERK inhibitors: Dose response cell-based high throughput screening assay to measure inhibition of PERK at 6 hours. [Related pubchem assays: 1522, 1416 ]; type: functional
[5] = target: T3, Delta-type opioid receptor (Homo sapiens, UniProt P41143); experiment: HTS Image-Based Screen for Antagonists of the DOR Receptor. [Related pubchem assays (depositor defined):AID1777, AID1785, AID1786, AID2133]; type: functional
[6] = target: Mu-type opioid receptor (Homo sapiens, UniProt P35372); experiment: HTS Image-Based Screen for Agonists of the MOR Receptor. [Related pubchem assays (depositor defined):AID1777, AID1785, AID1786, AID2133]; type: functional;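 also: imaging of beta-arrestin GFP recruitment into spots after receptor activation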
[7] = target: T3, Delta-type opioid receptor; experiment: HTS Image-Based Screen for Agonists of the DOR Receptor. [Related pubchem assays (depositor defined):AID1777, AID1786, AID2133]; type: functional
[8] = target: T4, Kappa-type opioid receptor (Homo sapiens, UniProt P41145); type: functional
[9] = target: Beta-galactosidase (Escherichia coli, UniProt Q8VNN2); type: functional
[10] = target: T4, Kappa-type opioid receptor; type: functional; remark: listed apart in the source
[11] = target: Aspartyl aminopeptidase (Plasmodium falciparum 3D7, UniProt Q8I2J3)
[12] = target: Procathepsin L (Homo sapiens, UniProt P07711)
[13] = target: T5, Voltage-gated N-type calcium channel alpha-1B subunit/Amyloid beta A4 precursor protein-binding family A member 1 (Homo sapiens, UniProt Q00975+Q02410); type: protein assay
[14] = target: T5, Voltage-gated N-type calcium channel alpha-1B subunit/Amyloid beta A4 precursor protein-binding family A member 1; type: protein assay; remark: listed apart in the source
[15] = target: T6, Mannose-6-phosphate isomerase (Homo sapiens, UniProt P34949); experiment: MPI enzyme activity inhibition – biochemical, fluorescence intensity, coupled assay, primary screen (AID 1209)
T6 sequence (P34949 whole entry): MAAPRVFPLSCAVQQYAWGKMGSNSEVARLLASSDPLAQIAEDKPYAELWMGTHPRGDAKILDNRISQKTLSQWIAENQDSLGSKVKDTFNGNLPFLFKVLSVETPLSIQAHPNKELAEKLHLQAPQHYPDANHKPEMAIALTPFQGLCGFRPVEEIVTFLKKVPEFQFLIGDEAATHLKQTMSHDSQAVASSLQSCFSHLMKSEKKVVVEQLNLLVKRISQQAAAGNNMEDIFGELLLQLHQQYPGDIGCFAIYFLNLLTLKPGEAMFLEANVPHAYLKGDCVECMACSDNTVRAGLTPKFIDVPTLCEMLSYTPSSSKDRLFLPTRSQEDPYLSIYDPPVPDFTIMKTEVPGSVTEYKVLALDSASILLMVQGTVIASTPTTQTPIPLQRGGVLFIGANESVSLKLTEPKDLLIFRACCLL

[16] = target: DNA dC->dU-editing enzyme APOBEC-3A (Homo sapiens, UniProt P31941); experiment: A3A deaminase inhibition for selectivity – biochemical, dose response (AID 504722); type: functional
[17] = target: Eukaryotic translation initiation factor 4E (Mus musculus, UniProt P63073); experiment: blockers of eIF4G binding by eIF4E – biochemical, TR-FRET, dose response (AID 855); type: functional;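 also: potency for disrupting eIF4E binding to eIF4GI seen as loss of FRET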
[18] = target: DNA dC->dU-editing enzyme APOBEC-3G (Homo sapiens, UniProt Q9HC16); experiment: Dose Response confirmation of small molecule APOBEC3G DNA Deaminase Inhibitors via a fluorescence-based single-stranded DNA deaminase assay. [Related pubchem assays (depositor defined):AID493012, AID493028]; type: functional
[19] = decrease of insulin promoter-GFP reporter – imaging, high-content screening, mouse beta cells (AID 1628); type: functional; details: MIN6
[20] = MIN6 cell viability loss – mouse insulinoma, cytotoxicity control, dose response (AID 2122); type: functional;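 also: confirmatory high-throughput counterscreen run to flag cytotoxic compounds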
[21] = target: Exodeoxyribonuclease V (Escherichia coli (strain K12), UniProt P04993+P07648+P08394); experiment: RecBCD inhibition via phage-restricted bacterial growth – absorbance, V66 E. coli, mutant T4 phage, counter-screen for AddAB inhibitor project, dose response (AID 492957); type: functional, cell-based, Escherichia coli str. K-12 substr. MG1655
[22] = Counterscreen for AddAB inhibitors: absorbance-based bacterial cell-based high throughput dose response assay for inhibitors of bacterial viability. [Related pubchem assays (depositor defined):AID435030, AID449728, AID449731, AID488942, AID488955, AID488956]; type: functional
[23] = target: G-protein coupled receptor 35 (Homo sapiens, UniProt Q9HC97); experiment: inhibition of zaprinast-stimulated GPR35 beta-arrestin translocation – imaging, U2OS, beta-arrestin-GFP, zaprinast agonist, primary screen (AID 2058); type: functional;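 also: antagonist potency meaning inhibition of agonist-induced arrestin redistribution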
[24] = THP-1 cell cytotoxicity, dose response, cytotoxicity control for non-replicating M. tuberculosis project (AID 489025); type: functional
[25] = cells; type: functional
[26] = target: T7, Mitochondrial peptide methionine sulfoxide reductase (Bos taurus, UniProt P54149); experiment: Absorbance-based biochemical high throughput dose response assay for activators of Methionine sulfoxide reductase A (MsrA).; type: functional
T7 sequence (P54149 whole entry): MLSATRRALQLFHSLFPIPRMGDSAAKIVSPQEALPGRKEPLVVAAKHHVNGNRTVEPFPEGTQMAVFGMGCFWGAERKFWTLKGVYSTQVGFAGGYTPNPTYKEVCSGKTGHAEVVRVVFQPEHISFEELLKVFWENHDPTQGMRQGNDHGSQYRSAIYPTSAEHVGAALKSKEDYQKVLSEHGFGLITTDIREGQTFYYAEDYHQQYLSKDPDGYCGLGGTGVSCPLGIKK

T5 sequence (Q00975 whole entry): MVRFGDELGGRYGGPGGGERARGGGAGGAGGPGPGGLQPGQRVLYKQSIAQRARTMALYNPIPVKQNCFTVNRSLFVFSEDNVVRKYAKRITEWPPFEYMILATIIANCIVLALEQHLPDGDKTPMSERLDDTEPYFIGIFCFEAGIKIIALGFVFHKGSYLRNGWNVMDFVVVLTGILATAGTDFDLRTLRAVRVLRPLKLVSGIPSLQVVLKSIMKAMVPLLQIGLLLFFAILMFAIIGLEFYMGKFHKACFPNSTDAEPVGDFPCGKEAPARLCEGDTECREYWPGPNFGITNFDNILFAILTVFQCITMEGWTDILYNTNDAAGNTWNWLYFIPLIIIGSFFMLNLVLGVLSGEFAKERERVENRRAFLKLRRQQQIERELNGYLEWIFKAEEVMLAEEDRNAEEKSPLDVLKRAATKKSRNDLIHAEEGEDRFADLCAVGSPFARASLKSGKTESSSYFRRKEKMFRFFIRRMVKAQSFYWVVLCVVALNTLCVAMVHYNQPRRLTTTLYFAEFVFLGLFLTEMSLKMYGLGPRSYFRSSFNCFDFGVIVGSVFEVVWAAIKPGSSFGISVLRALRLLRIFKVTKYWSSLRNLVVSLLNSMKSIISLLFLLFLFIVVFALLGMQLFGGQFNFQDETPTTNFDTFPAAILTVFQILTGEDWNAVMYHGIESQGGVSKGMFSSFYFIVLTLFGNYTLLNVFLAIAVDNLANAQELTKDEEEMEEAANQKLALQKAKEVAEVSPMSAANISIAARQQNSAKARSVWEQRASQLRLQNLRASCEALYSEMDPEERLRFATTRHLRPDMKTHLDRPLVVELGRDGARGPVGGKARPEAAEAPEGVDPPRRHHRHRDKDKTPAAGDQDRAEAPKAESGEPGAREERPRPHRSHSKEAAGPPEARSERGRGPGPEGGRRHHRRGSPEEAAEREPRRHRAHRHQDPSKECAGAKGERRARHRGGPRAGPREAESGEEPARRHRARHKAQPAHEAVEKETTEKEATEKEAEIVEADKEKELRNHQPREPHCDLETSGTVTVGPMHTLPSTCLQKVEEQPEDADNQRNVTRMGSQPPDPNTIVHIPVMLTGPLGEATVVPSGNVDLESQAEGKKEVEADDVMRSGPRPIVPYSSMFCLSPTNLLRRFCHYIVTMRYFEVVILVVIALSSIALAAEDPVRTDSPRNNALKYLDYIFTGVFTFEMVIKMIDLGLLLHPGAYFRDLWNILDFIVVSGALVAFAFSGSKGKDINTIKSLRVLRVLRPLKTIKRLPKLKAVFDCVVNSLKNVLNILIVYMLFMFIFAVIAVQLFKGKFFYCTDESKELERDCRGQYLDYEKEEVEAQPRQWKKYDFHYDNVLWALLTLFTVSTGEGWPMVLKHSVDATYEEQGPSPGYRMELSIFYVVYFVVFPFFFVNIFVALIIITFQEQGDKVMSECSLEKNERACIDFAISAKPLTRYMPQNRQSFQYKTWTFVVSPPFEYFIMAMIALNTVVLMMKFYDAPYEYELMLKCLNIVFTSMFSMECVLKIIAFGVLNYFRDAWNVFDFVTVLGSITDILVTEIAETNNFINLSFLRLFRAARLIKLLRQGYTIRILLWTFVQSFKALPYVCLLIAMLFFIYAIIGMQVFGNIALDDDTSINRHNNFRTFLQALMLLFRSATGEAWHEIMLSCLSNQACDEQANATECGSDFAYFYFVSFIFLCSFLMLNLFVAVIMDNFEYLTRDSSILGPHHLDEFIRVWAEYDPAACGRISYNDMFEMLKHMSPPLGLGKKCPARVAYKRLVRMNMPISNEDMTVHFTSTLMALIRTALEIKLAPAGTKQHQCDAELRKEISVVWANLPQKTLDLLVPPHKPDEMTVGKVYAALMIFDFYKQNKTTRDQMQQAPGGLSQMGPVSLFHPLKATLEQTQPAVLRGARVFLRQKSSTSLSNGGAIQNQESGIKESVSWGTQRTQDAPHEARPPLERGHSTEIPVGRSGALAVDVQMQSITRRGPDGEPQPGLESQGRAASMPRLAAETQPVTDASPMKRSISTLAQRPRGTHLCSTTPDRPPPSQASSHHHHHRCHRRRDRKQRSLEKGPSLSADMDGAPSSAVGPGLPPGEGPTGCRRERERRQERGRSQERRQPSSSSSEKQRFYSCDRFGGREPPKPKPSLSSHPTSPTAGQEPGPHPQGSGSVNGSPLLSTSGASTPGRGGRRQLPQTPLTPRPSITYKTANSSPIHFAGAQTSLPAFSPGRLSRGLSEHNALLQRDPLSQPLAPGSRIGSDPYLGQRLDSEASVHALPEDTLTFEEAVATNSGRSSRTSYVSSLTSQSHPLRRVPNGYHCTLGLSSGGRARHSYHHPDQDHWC
T5 sequence (Q02410 whole entry): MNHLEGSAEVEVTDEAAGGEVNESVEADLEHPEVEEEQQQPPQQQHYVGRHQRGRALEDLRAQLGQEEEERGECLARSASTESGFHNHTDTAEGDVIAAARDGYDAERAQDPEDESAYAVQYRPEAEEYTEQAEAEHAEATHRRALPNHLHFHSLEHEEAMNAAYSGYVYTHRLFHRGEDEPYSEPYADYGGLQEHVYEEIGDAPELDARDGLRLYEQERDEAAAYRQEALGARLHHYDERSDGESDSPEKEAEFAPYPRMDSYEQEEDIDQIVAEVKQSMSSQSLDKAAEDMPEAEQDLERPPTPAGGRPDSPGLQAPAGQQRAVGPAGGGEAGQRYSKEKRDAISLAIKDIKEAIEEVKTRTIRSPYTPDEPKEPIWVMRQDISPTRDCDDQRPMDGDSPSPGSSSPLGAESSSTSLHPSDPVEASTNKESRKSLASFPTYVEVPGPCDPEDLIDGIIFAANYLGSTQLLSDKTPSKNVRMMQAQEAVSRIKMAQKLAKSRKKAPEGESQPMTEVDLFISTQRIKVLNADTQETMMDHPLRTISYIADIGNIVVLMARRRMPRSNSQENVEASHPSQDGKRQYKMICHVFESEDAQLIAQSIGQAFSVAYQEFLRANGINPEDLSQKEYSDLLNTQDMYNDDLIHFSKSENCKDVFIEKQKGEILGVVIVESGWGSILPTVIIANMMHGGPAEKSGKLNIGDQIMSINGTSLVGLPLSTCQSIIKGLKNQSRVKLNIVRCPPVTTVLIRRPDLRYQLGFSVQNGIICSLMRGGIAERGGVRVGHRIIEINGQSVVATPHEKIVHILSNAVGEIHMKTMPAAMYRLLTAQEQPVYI
Sequence of Procathepsin L (P07711 whole entry): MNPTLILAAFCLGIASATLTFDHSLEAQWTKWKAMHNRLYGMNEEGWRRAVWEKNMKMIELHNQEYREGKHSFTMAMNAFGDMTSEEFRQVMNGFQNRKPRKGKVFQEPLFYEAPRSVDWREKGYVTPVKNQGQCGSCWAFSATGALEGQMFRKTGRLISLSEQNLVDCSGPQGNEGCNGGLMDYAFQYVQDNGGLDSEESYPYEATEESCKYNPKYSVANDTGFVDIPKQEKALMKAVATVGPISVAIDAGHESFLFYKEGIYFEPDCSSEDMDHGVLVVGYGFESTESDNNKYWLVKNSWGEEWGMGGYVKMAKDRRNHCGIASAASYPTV
T3 sequence (P41143 whole entry): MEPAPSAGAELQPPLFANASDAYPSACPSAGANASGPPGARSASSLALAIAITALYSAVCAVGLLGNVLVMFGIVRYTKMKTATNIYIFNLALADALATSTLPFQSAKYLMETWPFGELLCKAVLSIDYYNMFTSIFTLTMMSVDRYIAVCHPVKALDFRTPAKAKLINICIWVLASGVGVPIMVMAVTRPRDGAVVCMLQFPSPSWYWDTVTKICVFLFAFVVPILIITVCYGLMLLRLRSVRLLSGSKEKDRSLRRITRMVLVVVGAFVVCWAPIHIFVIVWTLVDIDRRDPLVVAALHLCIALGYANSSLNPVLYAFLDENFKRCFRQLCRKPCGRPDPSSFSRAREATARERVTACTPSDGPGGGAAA
Sequence of Aspartyl aminopeptidase (Q8I2J3 whole entry): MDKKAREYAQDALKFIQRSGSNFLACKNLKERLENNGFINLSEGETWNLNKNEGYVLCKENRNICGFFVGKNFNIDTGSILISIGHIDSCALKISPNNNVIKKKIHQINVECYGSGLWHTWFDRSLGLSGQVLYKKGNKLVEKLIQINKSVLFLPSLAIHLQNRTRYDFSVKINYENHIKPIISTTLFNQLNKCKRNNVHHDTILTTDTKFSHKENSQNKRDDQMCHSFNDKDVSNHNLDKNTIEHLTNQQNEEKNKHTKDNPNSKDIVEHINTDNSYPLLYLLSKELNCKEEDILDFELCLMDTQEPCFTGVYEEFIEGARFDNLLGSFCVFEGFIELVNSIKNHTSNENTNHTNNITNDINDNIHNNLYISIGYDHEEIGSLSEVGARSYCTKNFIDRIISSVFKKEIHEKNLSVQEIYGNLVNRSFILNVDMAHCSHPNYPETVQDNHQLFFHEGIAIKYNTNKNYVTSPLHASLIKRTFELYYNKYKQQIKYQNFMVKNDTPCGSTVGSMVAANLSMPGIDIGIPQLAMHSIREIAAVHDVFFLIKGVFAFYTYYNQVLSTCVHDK
T4 sequence (P41145 whole entry): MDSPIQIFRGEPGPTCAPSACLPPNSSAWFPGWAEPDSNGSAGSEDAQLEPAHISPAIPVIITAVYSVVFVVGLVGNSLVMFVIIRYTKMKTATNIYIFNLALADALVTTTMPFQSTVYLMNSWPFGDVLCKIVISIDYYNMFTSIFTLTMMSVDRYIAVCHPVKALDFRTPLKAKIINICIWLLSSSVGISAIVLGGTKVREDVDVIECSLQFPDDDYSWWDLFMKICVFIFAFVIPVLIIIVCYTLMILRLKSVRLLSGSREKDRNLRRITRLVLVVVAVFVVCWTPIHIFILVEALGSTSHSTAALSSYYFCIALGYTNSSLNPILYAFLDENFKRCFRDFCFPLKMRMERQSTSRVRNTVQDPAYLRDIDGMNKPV
Sequence of Eukaryotic translation initiation factor 4E (P63073 whole entry): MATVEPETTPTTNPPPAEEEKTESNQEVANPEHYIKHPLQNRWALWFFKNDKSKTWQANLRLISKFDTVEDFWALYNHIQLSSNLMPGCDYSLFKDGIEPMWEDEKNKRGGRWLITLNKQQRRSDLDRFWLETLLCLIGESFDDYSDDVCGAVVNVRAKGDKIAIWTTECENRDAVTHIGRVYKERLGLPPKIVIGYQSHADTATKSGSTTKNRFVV

For `COc1ccc(Oc2c(N3CCCCC3)cnn(-c3ccc(C(C)C)cc3)c2=O)cc1`, which IC50 [1] is on record?
Its IC50 is 5.7 µM (active).

What about the IC50 [2] of the same compound?
Its IC50 is > 20 µM (inactive).

With `CC(C)(C)c1ccc(C(=O)Oc2ccccc2CCC(=O)O)cc1` as the compound, how does the EC50 [3] read?
Its EC50 is > 55.7 µM (not active).

And the EC50 [4]?
Its EC50 is > 55.7 µM (not active).

For `COc1ccccc1/N=c1\scc(-c2ccc3c(c2)NC(=O)CO3)n1CC1CCCO1` (stereo not given), which IC50 [5] is on record?
Its IC50 is > 32 µM (inactive).

What about the EC50 [6] of the same compound?
Its EC50 is > 32 µM (inactive).

And the EC50 [7]?
The EC50 was > 32 µM (inactive).

And the IC50 [8]?
The IC50 was 5.52 µM (active).

What about the EC50 [9] of the same compound?
The EC50 was > 31.5 µM (inactive).

What about the IC50 [10] of the same compound?
Its IC50 is > 32 µM.

What does the source list for `c1ccc(NCn2cncn2)nc1`?
IC50 [11]: 2.56 µM (active); IC50 [12]: > 59.6 µM (not active)

Which IC50 [13] does the source give for `Nc1ccc2[nH]c(-c3ccc(N)c(Cl)c3)nc2c1` here?
Its IC50 is 35.6 µM (active).

What about the IC50 [14] of the same compound?
Its IC50 is 4.1 µM (active).

Which results are given for `CCOC(=O)C1=C(CS(=O)(=O)c2ccc(F)cc2)NC(=O)NC1c1ccc(O)c(O)c1` (stereo not given)?
IC50 [11]: 1.52 µM (active); IC50 [12]: > 59.6 µM (not active)

What does the source list for `N#Cc1cccc(/N=c2\ssnc2Cl)c1`?
IC50 [13]: 11.3 µM (active); IC50 [15]: 26.7 µM (active); IC50 [14]: 10.9 µM (active); IC50 [16]: > 100 µM (inactive); IC50 [17]: 50 µM (inactive); IC50 [18]: 7.4 µM (active)

With `CCn1nc(C)c(CN2CCc3c([nH]c4ccccc34)C2c2ccc(F)c(OC)c2)c1C` (stereo not given) as the compound, how does the IC50 [19] read?
The IC50 was 2.29 µM (active).

What about the IC50 [20] of the same compound?
The IC50 was 13.6 µM (inactive).

What does the source list for `COc1ccc(Nc2nnc(SCc3cn4c(C)cccc4n3)s2)cc1`?
IC50 [21]: > 119 µM (inactive); IC50 [22]: > 119 µM (inactive)

With `CCN(CC)c1ccc(-c2sc(Nc3ccccc3)n[n+]2-c2ccc(F)cc2)cc1` as the compound, how does the IC50 [23] read?
The IC50 was 0.626 µM (active).

What about the CC50 [24] of the same compound?
The CC50 was 26.4 µM (active).

And the IC50 [25]?
Its IC50 is 14 µM (active).

And the EC50 [26]?
Its EC50 is > 104 µM (inactive).
